Measurements from patent US10052320B2, “Substituted quinoxalines as FGFR kinase inhibitors” (ASTEX THERAPEUTICS LIMITED, priority 2011, dated 2018).
Where two headings read alike, the source gives them in different places.

Columns and labels:
FGFR2 (h) = FGFR2 (h) (Homo sapiens, UniProt P21802); assay: FGFR2 (enzymatic assay), TR-FRET; format: biochemical; settings: read-out: FGFR 2 pIC50 (converted)
Description: In a final reaction volume of 30 μL, FGFR2 (h) (150 ng/ml) was incubated with 50 mM HEPES pH 7.5, 6 mM MnCl2, 1 mM DTT, 0.1 mM Na3VO4, 0.01% Triton-X-100, 500 nM Btn-Flt3 and 0.4 μM ATP in the presence of compound (1% DMSO final). […] Time-Resolved Fluorescence Resonance Energy Transfer (TR-FRET) signal (ex340 nm. Em 620 nm, em 655 nm) was measured afterwards and results are expressed in (Relative Fluorescence Units).

[1] = molecular target: Ba/F3-KDR-transfected cells (Homo sapiens, UniProt P35968); assay: Ba/F3-KDR (minus IL3) cellular proliferation assay, Alamar Blue; format: cell-based
Description: Ba/F3-KDR (Minus IL3 or Plus IL3) (Cellular Proliferation Assay)
(§1) In a 384 well plate, 100 nl of compound dilution in DMSO was sprayed before adding 50 μl cell culture medium (phenol red free RPMI-1640, 10% FBS, 2 mM L-Glutamine and 50 μg/ml Gentamycin) containing 20000 cells per well of Ba/F3-KDR-transfected cells. Cells were put in an incubator at 37° C. and 5% CO2. After 24 hours, 10 μl of Alamar Blue solution (0.5 mM K3Fe(CN)6, 0.5 mM KaFe(CN)6, 0.15 mM Resazurin and 100 mM Phosphate Buffer) was added to the wells, incubated for 4 hours at 37° C. and 5% CO2 before RFU's (Relative Fluorescence Units) (ex. 540 nm., em. 590 nm.) were measured in a flurorescence plate reader.
(§2) As a counterscreen the same experiment was performed in the presence of 10 ng/ml murine IL3.
as §1, with “a 96” for “a 384”, “plate, 180” for “plate, 100 nl of compound dilution in DMSO was sprayed before adding 50”, “containing 10000” for “containing 20000”, “Ba/F3-KDR-transfected cells were pipette and 20 μl of compound dilution in DMSO was added.” for “Ba/F3-KDR-transfected cells.”, “hours, 40” for “hours, 10”, “CO2” for “CO2 before”

[2] = test system: Ba/F3-Flt3-transfected cells in the presence of 10 ng/ml murine IL3; assay: Ba/F3-Flt3 (plus IL3) cellular proliferation counterscreen, Alamar Blue; format: cell-based; settings: Mus musculus, read-out: BAF3-FLT3 (PLUS IL3) 384 well pIC50 (converted)
Description: Ba/F3-Flt3 (Minus IL3 or Plus IL3) (Cellular Proliferation Assay)
as §1, with “Ba/F3-Flt3-transfected” for “Ba/F3-KDR-transfected”
as §2
as §1, with “a 96” for “a 384”, “plate, 180” for “plate, 100 nl of compound dilution in DMSO was sprayed before adding 50”, “containing 10000” for “containing 20000”, “of Ba/F3-Flt3-transfected cells were pipette and 20 μl of compound dilution in DMSO was added.” for “of Ba/F3-KDR-transfected cells.”, “hours, 40” for “hours, 10”

FGFR2 (h), sequence (P21802 22-821): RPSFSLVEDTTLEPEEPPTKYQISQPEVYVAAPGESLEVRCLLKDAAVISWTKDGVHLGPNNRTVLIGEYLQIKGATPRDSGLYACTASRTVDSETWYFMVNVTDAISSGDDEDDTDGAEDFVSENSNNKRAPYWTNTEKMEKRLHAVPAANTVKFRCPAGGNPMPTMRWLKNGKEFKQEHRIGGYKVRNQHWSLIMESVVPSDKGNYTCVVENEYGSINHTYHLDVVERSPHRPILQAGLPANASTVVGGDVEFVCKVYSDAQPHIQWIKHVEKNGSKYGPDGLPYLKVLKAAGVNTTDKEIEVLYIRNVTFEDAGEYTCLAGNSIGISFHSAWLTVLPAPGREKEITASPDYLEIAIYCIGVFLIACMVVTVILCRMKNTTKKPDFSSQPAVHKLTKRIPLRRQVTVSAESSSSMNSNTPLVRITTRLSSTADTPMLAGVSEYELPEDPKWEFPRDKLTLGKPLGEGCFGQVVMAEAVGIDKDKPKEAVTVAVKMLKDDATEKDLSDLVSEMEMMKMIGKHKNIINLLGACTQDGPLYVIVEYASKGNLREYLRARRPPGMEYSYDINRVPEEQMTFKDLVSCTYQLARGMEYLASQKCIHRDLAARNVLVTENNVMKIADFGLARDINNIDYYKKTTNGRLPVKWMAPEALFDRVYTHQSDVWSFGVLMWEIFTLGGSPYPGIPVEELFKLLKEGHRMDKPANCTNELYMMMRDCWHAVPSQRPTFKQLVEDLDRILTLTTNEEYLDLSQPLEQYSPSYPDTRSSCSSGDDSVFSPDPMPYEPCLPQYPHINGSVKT
Ba/F3-KDR-transfected cells, sequence (P35968 whole entry, change not shown): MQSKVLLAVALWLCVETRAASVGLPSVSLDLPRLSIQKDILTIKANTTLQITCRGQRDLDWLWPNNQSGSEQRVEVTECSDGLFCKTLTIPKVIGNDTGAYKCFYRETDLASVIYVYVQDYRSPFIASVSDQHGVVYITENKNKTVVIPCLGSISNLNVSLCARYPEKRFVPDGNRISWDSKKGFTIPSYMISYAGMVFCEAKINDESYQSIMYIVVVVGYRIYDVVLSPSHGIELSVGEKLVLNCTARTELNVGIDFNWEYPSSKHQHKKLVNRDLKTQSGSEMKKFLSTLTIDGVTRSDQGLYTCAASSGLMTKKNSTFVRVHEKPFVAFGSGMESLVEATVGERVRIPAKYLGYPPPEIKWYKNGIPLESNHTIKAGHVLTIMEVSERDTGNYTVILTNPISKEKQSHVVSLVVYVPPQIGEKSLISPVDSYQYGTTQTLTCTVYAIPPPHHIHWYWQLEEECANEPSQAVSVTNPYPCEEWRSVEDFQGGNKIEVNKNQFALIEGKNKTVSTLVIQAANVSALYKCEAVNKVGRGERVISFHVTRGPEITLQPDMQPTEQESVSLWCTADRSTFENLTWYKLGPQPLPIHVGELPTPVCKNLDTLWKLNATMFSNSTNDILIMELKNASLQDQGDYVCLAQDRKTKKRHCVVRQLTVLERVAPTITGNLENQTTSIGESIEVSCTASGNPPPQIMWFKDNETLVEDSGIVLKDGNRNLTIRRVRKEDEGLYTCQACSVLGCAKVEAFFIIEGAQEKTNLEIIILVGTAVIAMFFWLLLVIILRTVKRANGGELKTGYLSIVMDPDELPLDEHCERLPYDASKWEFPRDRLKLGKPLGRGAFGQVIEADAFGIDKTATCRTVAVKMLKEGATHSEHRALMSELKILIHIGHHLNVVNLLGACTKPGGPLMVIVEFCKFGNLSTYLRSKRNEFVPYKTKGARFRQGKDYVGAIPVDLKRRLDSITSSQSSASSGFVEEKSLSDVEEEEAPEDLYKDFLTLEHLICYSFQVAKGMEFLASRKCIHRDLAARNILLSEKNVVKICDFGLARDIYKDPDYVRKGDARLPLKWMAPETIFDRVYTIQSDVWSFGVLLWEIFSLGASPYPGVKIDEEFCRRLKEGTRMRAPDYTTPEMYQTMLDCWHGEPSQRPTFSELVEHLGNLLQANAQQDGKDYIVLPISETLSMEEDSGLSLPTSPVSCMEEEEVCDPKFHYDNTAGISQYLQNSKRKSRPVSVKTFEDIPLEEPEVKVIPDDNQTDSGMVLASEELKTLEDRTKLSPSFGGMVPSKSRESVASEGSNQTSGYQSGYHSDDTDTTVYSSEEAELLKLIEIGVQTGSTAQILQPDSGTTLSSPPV

Compound	IC50 (FGFR2 (h))	BAF3-KDR (MIN IL3) 384 well pIC50 ([1]; minus IL3)	IC50 ([2]; plus 10 ng/ml murine IL3)	BAF3-KDR (MIN IL3) 384 well pIC50 ([1]; minus IL3, 384 well)	IC50 ([2]; plus IL3, 384 well)
COc1cc(OC)cc(N(CCN2CCOCC2)c2ccc3ncc(-c4ccc(NC(=O)N5CCOCC5)nc4)nc3c2)c1 [Compound 35]	26.3 nM	5.11	> 10 µM		
COc1cc(OC)cc(N(CC2CC2)c2ccc3ncc(-c4cccc(N5CCOCC5)c4)nc3c2)c1 [Compound 92]	661 nM	<5			
COc1cc(OC)cc(N(CCO)c2ccc3ncc(-c4ccc(N5CCN(C)CC5)nc4)nc3c2)c1 [Compound 163]	15.8 nM	5.3	> 10 µM		
CO/N=C(\C)c1cnc2ccc(N(CCO)c3cc(OC)cc(OC)c3)cc2n1 [Compound 29]	115 nM	<5	> 10 µM		
CNc1ccc(-c2cnc3ccc(N(CCCNCC(F)(F)F)c4cc(OC)cc(OC)c4)cc3n2)cn1 [Compound 129]	37.2 nM	<5	> 10 µM		
COc1cc(OC)cc(N(CCN)c2ccc3ncc(-c4ccn(C)c4)nc3c2)c1 [Compound 79]	2.63 nM	5.45	> 10 µM		
COc1cc(OC)cc(N(CCNC(C)C)c2ccc3ncc(C(=O)NCCCN4CCCCC4)nc3c2)c1 [Compound 182]	26.3 nM	<5	> 10 µM		
COc1cc(OC)cc(N(CCCNCC(F)(F)F)c2ccc3ncc(-c4ccnc(Cl)c4)nc3c2)c1 [Compound 145]	166 nM	<5	> 10 µM		
COc1cc(OC)cc(N(CC2CC2)c2ccc3ncc(C#Cc4cncn4C)nc3c2)c1 [Compound 22]	95.5 nM			<5	> 10 µM
COc1cc(OC)cc(N(CCNC(C)C)c2ccc3ncc(NCC4CCNCC4)nc3c2)c1 [Compound 161]	14.1 nM	<5	> 10 µM		
COc1cc(OC)cc(N(CC2CC2)c2ccc3ncc(-c4cnc5[nH]ccc5c4)nc3c2)c1 [Compound 88]	1150 nM			<5	
COc1cc(OC)cc(N(CCNC(C)C)c2ccc3ncc(-n4cnc(COC(C)=O)c4)nc3c2)c1 [Compound 167]	7.76 nM	<5	> 10 µM		
COc1cc(OC)cc(N(CCO)c2ccc3ncc(C4=CCN(C(=O)OC(C)(C)C)C4)nc3c2)c1 [Compound 173]	32.4 nM	<5	> 10 µM		
COc1cc(OC)cc(N(CCNC(C)C)c2ccc3ncc(-c4ccnc(C(=O)NCCCN)c4)nc3c2)c1 [Compound 146]	8.13 nM	<5	> 10 µM		
COc1cc(OC)cc(N(CCO)c2ccc3ncc(C4CCN(C(=O)OC(C)(C)C)CC4)nc3c2)c1 [Compound 185]	214 nM	<5	> 10 µM		
COc1cc(OC)cc(N(CCO)c2ccc3ncc(-c4ccc(N5CCN(C(=O)OC(C)(C)C)CC5)cc4)nc3c2)c1 [Compound 156]	95.5 nM	<5	> 10 µM		

Compound	IC50 (FGFR2 (h))	BAF3-KDR (MIN IL3) 384 well pIC50 ([1]; minus IL3)	IC50 ([2]; plus 10 ng/ml murine IL3)	BAF3-KDR (MIN IL3) 384 well pIC50 ([1]; minus IL3, 384 well)	IC50 ([2]; plus IL3, 384 well)
COc1cc(OC)cc(N(CC#Cc2ncccc2OC)c2ccc3ncc(-c4cccnc4)nc3c2)c1 [Compound 183]	81.3 nM	<5	> 10 µM		
COc1cc(OC)cc(N(CC2CC2)c2ccc3ncc(C(=O)Nc4cncn4C)nc3c2)c1 [Compound 27]	~4170 nM	<5	> 10 µM		
COc1cc(OC)cc(N(CC2CC2)c2ccc3ncc(-c4ccc5c(c4)OCO5)nc3c2)c1 [Compound 87]	955 nM			<5.4	
COc1cc(OC)cc(N(CC#Cc2ncccn2)c2ccc3ncc(-c4cccnc4)nc3c2)c1 [Compound 2]	34.7 nM	<5	> 10 µM		
COc1cc(OC)cc(N(CCO)c2ccc3ncc(-c4ccnc(C(=O)NCCCCCN)c4)nc3c2)c1 [Compound 138]	~31.6 nM	<5			
COc1cc(OC)cc(N(CCO)c2ccc3ncc(-c4ccccc4CCO)nc3c2)c1 [Compound 151]	513 nM	<5	> 10 µM		
COc1cc(OC)cc(N(CCCO)c2ccc3ncc(-c4ccnc(C(=O)N5CCOCC5)c4)nc3c2)c1 [Compound 43]	13.2 nM	5.07	> 10 µM		
COc1cc(OC)cc(N(CCCO)c2ccc3ncc(-c4cnc(N5CCN(C)CC5)c(C)c4)nc3c2)c1 [Compound 135]	6.17 nM	5.33			
COc1cc(OC)cc(N(CC2CC2)c2ccc3ncc(-c4ccc5[nH]ccc5c4)nc3c2)c1 [Compound 86]	1820 nM			<5	
COc1cc(OC)cc(N(CCO)c2ccc3ncc(N4CCC(CN)CC4)nc3c2)c1 [Compound 84]	91.2 nM	<5			
COc1cc(OC)cc(N(CC2CC2)c2ccc3ncc(-n4cccn4)nc3c2)c1 [Compound 95]	> 10000 nM	<5			
COc1cc(OC)cc(N(CCNC(C)C)c2ccc3ncc(-c4ccn[nH]4)nc3c2)c1 [Compound 189]	2.29 nM	5.14			
COc1cc(OC)cc(N(CCCNC(C)C)c2ccc3ncc(-c4ccnc(NC(=O)OC(C)(C)C)c4)nc3c2)c1 [Compound 137]	8.32 nM	5.67			
COc1cc(OC)cc(N(CCNC(C)C)c2ccc3ncc(-c4ccnn4C4CCCCO4)nc3c2)c1 (stereo not shown) [Compound 188]	7.41 nM	5.14			
COc1cc(OC)cc(N(CC2CC2)c2ccc3ncc(-c4ccnc(N5CCOCC5)c4)nc3c2)c1 [Compound 90]	676 nM				
COc1cc(OC)cc(N(CC2CC2)c2ccc3ncc(-c4nnc(C)o4)nc3c2)c1 [Compound 85]	380 nM			<5	
